Earlier results as cited in patent US20170232026A1, “PHARMACEUTICAL COMPOSITION IN […] FOR VETERINARY USE AS A PROMOTER SYSTEM AND BIO-ADHESIVE IN ANT[…], AND METHOD FOR THE PRODUCTION THEREOF” (UNIVERSIDAD NACIONAL AUTONOMA DE MEXICO, priority 2014, published 2017).

Structure (SMILES): CC[C@H](C)[C@H]1O[C@]2(CC[C@@H]1C)C[C@@H]1C[C@@H](C/C=C(\C)[C@@H](O[C@H]3C[C@H](OC)[C@@H](O[C@H]4C[C@H](OC)[C@@H](O)[C@H](C)O4)[C@H](C)O3)[C@@H](C)/C=C/C=C3\CO[C@@H]4[C@H](O)C(C)=C[C@@H](C(=O)O1)[C@]34O)O2 [Ivermectin, 22, 23-dihydroavermectin B1a]
- solubility in ethanol at 95% (ethanol at 95%): soluble
- solubility in methanol (methanol): soluble
- solubility in water (water): insoluble
